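These data come from cells grown in 96-well plates and exposed to compound for 48 hours at five concentrations. Here, GI50 denotes the concentration required for 50% inhibition of growth.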 Calls of active or inactive are those of the source. No stated cut-off is given here; in the data, active = GI50 up to about 1.1 µM and inactive = higher.

Some test systems named below: SNB-19; SK-MEL-5; PC-3; MDA-N; SK-MEL-28; CCRF-CEM; M14; 786-0; K562; MOLT-4; MDA-MB-435; TK-10; SF-295; OVCAR-3; HCT-15; MDA-MB-231; COLO 205; ACHN; SK-OV-3; UACC-257.
What all share (test): inhibition of tumour cell growth, NCI panel, 48 h

For `Oc1c(Cl)cc(CN(Cc2cc(Cl)c(O)c(Cl)c2)C2CCCCC2)cc1Cl`, the GI50 with SNB-19 was > 100 µM (inactive); with SK-MEL-5 it was > 100 µM (inactive); in the assay on PC-3, > 100 µM (inactive); with MDA-N, > 100 µM (inactive); with SK-MEL-28, > 100 µM (inactive); in the assay on CCRF-CEM it was < 0.01 µM (active). Moreover, the GI50 in the assay with M14, in the assay with 786-0, in the assay on K562, with MOLT-4, with MDA-MB-435 and in the assay on TK-10 was > 100 µM (inactive) in each case. Further, the GI50 in the assay on SF-295 was > 100 µM (inactive); in the assay with OVCAR-3, > 100 µM (inactive); in the assay with HCT-15, over 100 µM; with MDA-MB-231, > 100 µM (inactive); with COLO 205, > 100 µM (inactive); in the assay with ACHN it was > 100 µM (inactive). Further, the GI50 in the assay on SK-OV-3 and in the assay on UACC-257 was > 100 µM (inactive) throughout.
On to `CSc1nc(Nc2cccc(C(F)(F)F)c2)c2c(N)nn(C)c2n1`, for which the GI50 with SNB-19 is > 100 µM (inactive); in the assay with SK-MEL-5, > 100 µM (inactive); in the assay with PC-3, > 100 µM (inactive); with MDA-N, > 100 µM (inactive); in the assay on SK-MEL-28, > 100 µM (inactive); in the assay with CCRF-CEM it was 38.1 µM (inactive). In addition, the GI50 in the assay with M14 is 76 µM (inactive); in the assay on 786-0 it was > 100 µM (inactive); with K562, 84.9 µM (inactive); in the assay on MOLT-4 it was 49 µM (inactive); with MDA-MB-435, > 100 µM (inactive); in the assay with TK-10, > 100 µM (inactive). Besides, the GI50 in the assay on SF-295 was 38 µM (inactive); in the assay with OVCAR-3 it was > 100 µM (inactive); in the assay with HCT-15, over 100 µM; with MDA-MB-231, > 100 µM (inactive); with COLO 205 it was > 100 µM (inactive); in the assay on ACHN it was > 100 µM (inactive). Further, the GI50 in the assay with SK-OV-3 and in the assay with UACC-257 was > 100 µM (inactive) in each case.
On to `Cc1ccc(-c2n[nH]c(=O)n2N)cc1`, for which the GI50 in the assay on SNB-19, in the assay on SK-MEL-5, in the assay on PC-3, with MDA-N, in the assay on SK-MEL-28 and with CCRF-CEM was > 100 µM (inactive) throughout. In addition, the GI50 in the assay on M14, with 786-0, in the assay with K562, in the assay on MOLT-4, with MDA-MB-435 and in the assay on TK-10 was > 100 µM (inactive) each time. Further, the GI50 in the assay on SF-295 is > 100 µM (inactive); in the assay with OVCAR-3, > 100 µM (inactive); in the assay with HCT-15, over 100 µM; with MDA-MB-231, > 100 µM (inactive); with COLO 205, > 100 µM (inactive); in the assay with ACHN, > 100 µM (inactive). The GI50 with SK-OV-3 and with UACC-257 was > 100 µM (inactive) each time.
In the case of `Cc1nc2sc(C(=O)c3ccc(Cl)cc3)c(N)c2c(-c2ccccc2Cl)c1C(=O)Nc1ccccc1`, the GI50 was 22.2 µM (inactive) with SNB-19; 17.4 µM (inactive) in the assay with SK-MEL-5; 19 µM (inactive) in the assay with PC-3; 10.8 µM (inactive) with MDA-N; 13.1 µM (inactive) in the assay with SK-MEL-28; 3.77 µM (inactive) in the assay on CCRF-CEM. Moreover, the GI50 in the assay on M14 is 9.71 µM (inactive); with 786-0 it was 10 µM (inactive); in the assay with K562, 12.3 µM (inactive); in the assay on MOLT-4 it was 14 µM (inactive); in the assay on MDA-MB-435, 12.2 µM (inactive); in the assay on TK-10 it was 6.76 µM (inactive). Further, the GI50 in the assay on SF-295 is 20.7 µM (inactive); in the assay with OVCAR-3, 16.4 µM (inactive); in the assay with HCT-15 it was 15.6 µM; with MDA-MB-231, 14.2 µM (inactive); with COLO 205, 18.3 µM (inactive); in the assay with ACHN, 21.2 µM (inactive). The values for the GI50 in the assay on SK-OV-3 and with UACC-257 were 14.4 µM (inactive) and 18.6 µM (inactive), respectively.

The values above are taken from ChEMBL document CHEMBL1201862, “PubChem BioAssay data set” (2004).
